Results from ChEMBL document CHEMBL1139587, “Synthesis of an N-acyl sulfamate analog of luciferyl-AMP: a stable and potent inhibitor of firefly luciferase” (Bioorg Med Chem Lett, 2005).
Each block holds one molecule with its values, some of them ahead of it.

Tests used:
[1] = molecular target: T1, Luciferin 4-monooxygenase (Luciola lateralis, UniProt Q01158); assay: Inhibition constant against luciferase with respect to natural substrate Mg-ATP; set-up: species or system Aquatica lateralis
T1 sequence (Q01158 whole entry): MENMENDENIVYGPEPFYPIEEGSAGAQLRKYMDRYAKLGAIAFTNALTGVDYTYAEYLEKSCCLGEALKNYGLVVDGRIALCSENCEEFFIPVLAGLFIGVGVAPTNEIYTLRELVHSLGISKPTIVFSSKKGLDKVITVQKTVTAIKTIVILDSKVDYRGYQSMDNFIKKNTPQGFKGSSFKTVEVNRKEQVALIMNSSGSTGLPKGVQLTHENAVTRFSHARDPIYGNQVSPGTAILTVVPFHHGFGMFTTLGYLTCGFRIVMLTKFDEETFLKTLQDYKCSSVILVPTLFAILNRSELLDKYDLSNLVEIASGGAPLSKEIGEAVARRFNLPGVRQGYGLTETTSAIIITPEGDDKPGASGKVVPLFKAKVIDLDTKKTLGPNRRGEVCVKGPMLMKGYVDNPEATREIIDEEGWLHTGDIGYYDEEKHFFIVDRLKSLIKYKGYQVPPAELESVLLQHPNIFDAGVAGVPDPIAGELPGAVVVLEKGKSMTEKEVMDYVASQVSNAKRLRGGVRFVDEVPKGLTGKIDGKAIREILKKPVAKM

[2] = molecular target: T1, Luciferin 4-monooxygenase; assay: Inhibition constant against luciferase with respect to luciferyl-adenylate; set-up: species or system Aquatica lateralis
[3] = molecular target: T1, Luciferin 4-monooxygenase; assay: Inhibition constant against luciferase with respect to natural substrate luciferin; set-up: species or system Aquatica lateralis
[4] = substrate: Nc1ncnc2c1ncn2C1O[C@H](COP(=O)(O)OC(=O)c2csc(-c3nc4ccc(O)cc4s3)n2)[C@@H](O)[C@H]1O; assay: Binding affinity against luciferase; settings: Aquatica lateralis

Ki [1]: 41 nM
Ki [2]: 340 nM
Ki [3]: 34 nM
Molecule: Nc1ncnc2c1ncn2[C@@H]1O[C@H](COS(=O)(=O)NC(=O)c2csc(-c3nc4ccc(O)cc4s3)n2)[C@@H](O)[C@H]1O

B1: Luciferin 4-monooxygenase (Luciola lateralis), Q01158 (protein)
chain: T1 sequence (Q01158 whole entry)
Km [4]: 4.7 µM
